Where two headings read alike, the source gives them in different places.
Legend:
[1] = system: fetal hemoglobin protein; experiment: HbF HPLC Cell Culture Assay; format: cell-based; settings: for EC50: 336 h, HbF induction, Day 14 of culture; for Hemoglobin HPLC Ymax obs (%): relative to a control compound
Procedure: A Cell Culture Assay was performed to evaluate the ability of compounds to induce fetal hemoglobin in a cell culture. The amount fetal hemoglobin protein induced was measured by HPLC.
Cell culture began on Day −4 (thaw day). Thaw buffer was prepared by sterile filtering 6 mL of Human Serum Albumin and 144 mL of PBS to make sterile 1% I/PBS. Cells were removed from liquid nitrogen storage and mostly thawed in a 37° C. water bath. Once the ice in the cryovials was melted, cells were transferred quickly into a 50 mL conical tube. Cryovial was rinsed once with thaw buffer and buffer was transferred over to the conical tube as well. Next, doubling volumes of thaw buffer was added to the conical and gently swirled for ˜30 seconds to one minute (for example: 2 mL was added and swirled, then 4 mL, then 8 mL, and so on) until the volume in the conical is 32 mL. Cells and buffer were centrifuged at 300G for 8 minutes, and the supernatant was aspirated. Another 32 mL of thaw buffer was added slowly, swirling the tube. The tube was again centrifuged at 300G for 8 minutes and the supernatant was aspirated. Cells were counted by resuspending in 1 mL of expansion media and counting with AOPI to determine the concentration of cells/mL.
On day 2, Passage & Treatment Day, each cell culture well was counted. Next fresh CD34 Expansion Media was made which contained StemSpan SFEM, CC100 and TPO all from StemCell technologies. Appropriate volume of cells was collected, centrifuged at 300 g and resuspended in fresh media. Cells were plated in treatment format at a density of 200,000 cells/ml, 25,000 cells/well. Finally, they were treated with test compounds as well as positive and negative controls.
On Days 0, 3 & 5 the same process was carried out. First, each cell culture well was counted. Next Phase 1 Erythroid Differentiation Media was freshly made, which contained StemSpan SFEM, 2.5 U/ml EPO, 0.5 mg/ml Holo-TF, 1× Glutamax, 5 μl/ml chemically defined lipid mixture, 10 ng/ml insulin, 50 ng/ml SCF, 10 ng/ml IL-3. Appropriate volume of cells was collected, centrifuged at 300 g and resuspended in fresh media. Cells should now be in fresh wells at a density of 100,000 cells/ml. 60,000 cells, 60,000 cells and 100,000 cells for days 0, 3, 5 respectively. Finally, fresh compound was added to each well at each timepoint (Days 0, 3 & 5).
On Day 7 media and cell culture density changes. Each cell culture well was counted. Next, Phase 2 Erythroid Differentiation Media was freshly made, which contains StemSpan SFEM, 2.5 U/ml EPO, 0.5 mg/ml Holo-TF, 1× Glutamax, 5 μl/ml chemically defined lipid mixture, 10 ng/ml insulin, 50 ng/ml SCF. Appropriate volume of cells was collected, centrifuged at 300 g and resuspended in fresh media. Cells were plated in fresh wells at a density of 500,000 cells/ml, 300,000 cells/well. Finally, fresh compound was added to each well at Day 7 timepoint.
On Day 10 media formulation is once again changed. Each cell culture well was counted. Fresh Phase 3 Erythroid Differentiation Media was made which contains StemSpan SFEM, 2.5 U/ml EPO, 0.5 mg/ml Holo-TF, 1× Glutamax, 5 μl/ml chemically defined lipid mixture, 10 ng/ml insulin. Appropriate volume of cells was collected, centrifuged at 300 g and resuspended in fresh media. Cells were plated in fresh wells at a density of 500,000 cells/ml, 500,000 cells/well. Finally, fresh compound was added to each well at Day 10 timepoint.
On Day 12 the cell density is once again changed. Each cell culture well was counted. Fresh Phase 3 Erythroid Differentiation Media was made. Appropriate volume of cells was collected, centrifuged at 300 g and resuspended in fresh media. Cells were plated in fresh wells at a density of 1,000,000 cells/ml, 1,000,000 cells/well. Finally fresh compound was added to each well.
Day 14 (18th day of experiment) refers to the terminal day of culture. Each cell culture well was counted. Next between 150K and 650K cells were placed in a uniquely labeled 1.5 ml standard tube. […]

[2] = target: DCN1 (DCUND1) protein PONY domain (Homo sapiens (Human), UniProt Q96GG9); experiment: TR-FRET assay, DCN1 binding with FAM-labeled probe
Outline: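 First, the E. coli-derived PONY domain was biotinylated and paired with streptavidin Tb cryptate. Compounds in 0.1% DMSO were then added to DCN1 and FAM-probe (5 nM/20 nM, or 0.31 nM/900 nM total with 800 nM unlabelled) in TritonX, 200 mM NaCl buffer. Finally, TR-FRET ratios were recorded at 1, 5 and 24 hrs.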

[3] = 24 hr after treatment with compound, read-out: TR FRET IC50 24 hr
[4] = TR FRET IC50 1 hr (nM), 1 hr after treatment with compound
[5] = read-out: TR FRET IC50 1 hr, 1 hr after treatment with compound

Sequence of DCN1 (DCUND1) protein PONY domain (Q96GG9 60-248): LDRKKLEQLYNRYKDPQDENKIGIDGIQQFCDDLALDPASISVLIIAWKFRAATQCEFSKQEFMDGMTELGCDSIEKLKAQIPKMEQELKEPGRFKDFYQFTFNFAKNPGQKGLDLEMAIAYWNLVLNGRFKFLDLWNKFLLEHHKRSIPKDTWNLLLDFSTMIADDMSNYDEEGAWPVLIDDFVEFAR

SMILES	EC50 [1] [nM]	Hemoglobin HPLC Ymax obs (%) [1]	IC50 [2, 3] [nM]	IC50 [2, 4] [nM]	IC50 [2, 5] [nM]
C=C(CN1CCC1)C(=O)NCc1nn(-c2ccccc2)c2c1[C@H](c1ccc(F)cc1)[C@H](NC(=O)c1cccc(C(F)(F)F)c1)C(=O)N2CC (racemic) [Compound I-49, rac-N-((4R,5R)-3-((2-(azetidin-1-ylmethyl)acrylamido)methyl)-7-ethyl-4-(4-fluorophenyl)-6-oxo-1-phenyl-4,5,6,7-tetrahydro-1H-pyrazolo[3,4-b]pyridin-5-yl)-3-(trifluoromethyl)benzamide]	≤ 50	++ (Hemoglobin HPLC Ymax greater than 65.0 and less than or equal to 100.0)	≤ 200	≤ 200	
CCN1C(=O)[C@@H](NC(=O)c2cccc(C(F)(F)F)c2)[C@@H](c2ccc(F)cc2)c2c(C(=O)N3CCC[C@H]3C#N)nn(C3CCOCC3)c21 [Compound I-350]	≤ 50	++ (Hemoglobin HPLC Ymax greater than 65.0 and less than or equal to 100.0)	≤ 200		≤ 200
CCN1C(=O)[C@@H](NC(=O)c2cccc(C(F)(F)F)c2)[C@@H](c2ccc(F)cc2)c2c(NC(=O)C3=CCC3)nn(-c3ccccc3)c21 (racemic) [Compound I-152]	> 200	++ (Hemoglobin HPLC Ymax greater than 65.0 and less than or equal to 100.0)	≤ 200		≤ 200
CCN1C(=O)[C@@H](NC(=O)c2cccc(C(F)(F)F)c2)[C@@H](c2ccc(F)cc2)c2c(C(=O)N3CCNC[C@H]3C#N)nn(C3CCOCC3)c21 [Compound I-363, N-((4S,5S)-3-((S)-2-cyanopiperazine-1-carbonyl)-7-ethyl-4-(4-fluorophenyl)-6-oxo-1-(tetrahydro-2H-pyran-4-yl)-4,5,6,7-tetrahydro-1H-pyrazolo[3,4-b]pyridin-5-yl)-3-(trifluoromethyl)benzamide]			≤ 200		≤ 200
CCc1cccc(C(=O)N[C@@H]2C(=O)N(CC)c3c(c(C(=O)N4[C@H](C#N)C[C@H]5C[C@H]54)nn3C3CCOCC3)[C@@H]2C2CC2)c1 [Compound I-552, N-((4S,5S)-3-((1R,3S,5R)-3-cyano-2-azabicyclo[3.1.0]hexane-2-carbonyl)-4-cyclopropyl-7-ethyl-6-oxo-1-(tetrahydro-2H-pyran-4-yl)-4,5,6,7-tetrahydro-1H-pyrazolo[3,4-b]pyridin-5-yl)-3-ethylbenzamide]			≤ 200		≤ 200
CCN1C(=O)[C@@H](NC(=O)c2cccc(C(F)(F)F)c2)[C@@H](c2ccc(F)cc2)c2c(CN(C)C#N)nn(-c3ccccc3)c21 [Compound I-92]	> 200	+ (Hemoglobin HPLC Ymax greater than or equal to 0.0 and less than or equal to 65.0)	≤ 200		200 to 1000
CCN1C(=O)[C@@H](NC(=O)c2cccc(C(F)(F)F)c2)[C@@H](c2ccc(F)cc2)c2c(C(=O)N3CCC[C@H]3C#N)nn(-c3ccccc3)c21 [Compound I-278]	> 200	+ (Hemoglobin HPLC Ymax greater than or equal to 0.0 and less than or equal to 65.0)	≤ 200	200 to 1000	
CCN1C(=O)[C@@H](NC(=O)c2cccc(C(F)(F)F)c2)[C@@H](c2ccc(F)cc2)c2c(C(=O)N(C)[C@@H](C#N)CCN(C)C)nn(C3CCOCC3)c21 [Compound I-369]			≤ 200		≤ 200
CCN1C(=O)[C@@H](NC(=O)c2cccc(C(F)(F)F)c2)[C@@H](C2CC2)c2c(C(=O)N3[C@H](C#N)C[C@H]4C[C@H]43)nn(C3CCOCC3)c21 [Compound I-256, N-((4S,5S)-3-((1R,3S,5R)-3-cyano-2-azabicyclo[3.1.0]hexane-2-carbonyl)-4-cyclopropyl-7-ethyl-6-oxo-1-(tetrahydro-2H-pyran-4-yl)-4,5,6,7-tetrahydro-1H-pyrazolo[3,4-b]pyridin-5-yl)-3-(trifluoromethyl)benzamide]	50 to 200	++ (Hemoglobin HPLC Ymax greater than 65.0 and less than or equal to 100.0)	≤ 200		≤ 200
CCN1C(=O)[C@@H](NC(=O)c2cccc(C(F)(F)F)c2)[C@@H](C2CC2)c2c(C(=O)N3C[C@H](F)C[C@H]3C#N)nn(C3CCOCC3)c21 [Compound I-372]	50 to 200	++ (Hemoglobin HPLC Ymax greater than 65.0 and less than or equal to 100.0)	≤ 200		≤ 200
CCN1C(=O)[C@@H](NC(=O)c2cccc(C(F)(F)F)c2)[C@@H](c2ccc(F)cc2)c2c([C@@H](C)NC#N)nn(-c3ccccc3)c21 [Compound I-73, N-((4S,5S)-3-((R)-1-cyanamidoethyl)-7-ethyl-4-(4-fluorophenyl)-6-oxo-1-phenyl-4,5,6,7-tetrahydro-1H-pyrazolo[3,4-b]pyridin-5-yl)-3-(trifluoromethyl)benzamide]	> 200	++ (Hemoglobin HPLC Ymax greater than 65.0 and less than or equal to 100.0)	≤ 200		≤ 200
CCN1C(=O)[C@@H](NC(=O)c2cccc(C(F)(F)F)c2)[C@@H](C2CC2)c2c(C(=O)N3CCNC[C@H]3C#N)nn(C3CCOCC3)c21 [Compound I-582]			≤ 200		≤ 200
CCN1C(=O)[C@@H](NC(=O)c2cccc(C(F)(F)F)c2)[C@@H](c2ccc(F)cc2)c2c(CNC(=O)/C=C/C(=O)OC)nn(-c3ccccc3)c21 (racemic) [Compound I-3]	50 to 200	++ (Hemoglobin HPLC Ymax greater than 65.0 and less than or equal to 100.0)	≤ 200		≤ 200
CCN1C(=O)[C@@H](NC(=O)c2cccc(C(F)(F)F)c2)[C@@H](C2CC2)c2c(C(=O)N3CCS(=O)(=O)C[C@H]3C#N)nn(C3CCOCC3)c21 (mixture of isomers) [Compound I-379]			≤ 200		≤ 200
CCN1C(=O)[C@@H](NC(=O)c2cccc(C(F)(F)F)c2)[C@@H](C2CC2)c2c(C(=O)N3CCNC[C@H]3C#N)nn(-c3ccccc3)c21 [Compound I-383]			≤ 200		≤ 200
CCN1C(=O)[C@@H](NC(=O)c2cccc(C(F)(F)F)c2)[C@@H](c2ccc(F)cc2)c2c(C(=O)N(C)[C@H](C#N)CCN(C)C)nn(C3CCOCC3)c21 [Compound I-370]			≤ 200		≤ 200
CCN1C(=O)[C@@H](NC(=O)c2cccc(C(F)(F)F)c2)[C@@H](c2ccc(F)cc2)c2c(C(=O)N3CCC[C@H]3C#N)nn(-c3ccccc3)c21 (mixture of isomers) [Compound I-34]		++ (Hemoglobin HPLC Ymax greater than 65.0 and less than or equal to 100.0)			
CCN1C(=O)[C@@H](NC(=O)c2cccc(C(F)(F)F)c2)[C@@H](C2CC2)c2c(C(=O)N3CS(=O)(=O)C[C@H]3C#N)nn(C3CCOCC3)c21 [Compound I-617]			≤ 200		≤ 200

Source: US20250163057A1, “DCN-1 MODULATING COMPOUNDS AND METHODS OF USE THEREOF” (Cellarity, Inc., priority 2023, published 2025)
